Test results as given in paper PMC6544242, “Development and validation of a multiplex UHPLC-MS/MS method for the determination of the investigational antibiotic against multi-resistant tuberculosis macozinone (PBTZ169) and five active metabolites in human plasma” (PLoS ONE, 2019).
Where two headings read alike, the source gives them in different places.

Experiments:
[1] = test system: bacteria (general anti-bacterial activity); design: method as in PMID 24500695; details: cited from earlier work
[2] = 24 h
[3] = test system: Mycobacterium tuberculosis; details: in vitro, Mycobacterium tuberculosis; cited from earlier work
[4] = human
[5] = for % from t0: processed extract sample, 24h
[6] = human, 6 h
[7] = test system: Mycobacterium tuberculosis; design: method as in PMID 20086151, PMID 22926573, PMID 25987624, PMID 30126954; details: preclinical models; cited from earlier work

SMILES: O=c1nc(N2CCN(CC3CCCCC3)CC2)sc2c([N+](=O)[O-])cc(C(F)(F)F)cc12 [PBTZ169, macozinone]
- general anti-bacterial activity [1]: no general anti-bacterial activity
- time stable in citrated human plasma [2]: at least 24 h
- minimum inhibitory concentration (MIC) [3]: below 0.0005 μg/mL
- % from t0 ([4]; 1 h, 10 ng/mL): 1%
- % from t0 ([4]; 1 h, 20 ng/mL): 2%
- % from t0 ([4]; 1 h, 50 ng/mL): -1%
- % from t0 ([4]; 1 h, 100 ng/mL): 3%
- % from t0 ([4]; 1 h, 200 ng/mL): 1%
- % from t0 ([4]; 1 h, 500 ng/mL): 0%
- % from t0 ([4]; 2 h, 10 ng/mL): 0%
- % from t0 ([4]; 2 h, 20 ng/mL): 2%
- % from t0 ([4]; 2 h, 50 ng/mL): -3%
- % from t0 ([4]; 2 h, 100 ng/mL): -1%
- % from t0 ([4]; 2 h, 200 ng/mL): -3%
- % from t0 ([4]; 2 h, 500 ng/mL): -4%
- % from t0 ([4]; 4 h, 10 ng/mL): -1%
- % from t0 ([4]; 4 h, 20 ng/mL): -1%
- % from t0 ([4]; 4 h, 50 ng/mL): -7%
- % from t0 ([4]; 4 h, 100 ng/mL): 0%
- % from t0 ([4]; 4 h, 200 ng/mL): -2%
- % from t0 ([4]; 4 h, 500 ng/mL): -3%
- change in processed samples ([5]; after 24h at RT, medium level): -30%
- % from t0 ([5]; 4°C, level H (QC 1500 ng/mL)): -15%
- % from t0 ([5]; 4°C, level L (QC 2 ng/mL)): 5%
- % from t0 ([5]; 4°C, level M (QC 150 ng/mL)): -7%
- % from t0 ([5]; RT, level H (QC 1500 ng/mL)): -8%
- % from t0 ([5]; RT, level L (QC 2 ng/mL)): -3%
- % from t0 ([5]; RT, level M (QC 150 ng/mL)): 2%
- % from freshly processed samples (n=2) ([6]; 0.1 ng/mL): 19%
- % from freshly processed samples (n=2) ([6]; 0.2 ng/mL): 11%
- % from freshly processed samples (n=2) ([6]; 0.5 ng/mL): -12%
- % from freshly processed samples (n=2) ([6]; 1 ng/mL): -4%
- % from freshly prepared samples ([6]; 2 ng/mL): 5%
- % from freshly processed samples (n=2) ([6]; 2 ng/mL): -3%
- % from freshly processed samples (n=2) ([6]; 50 ng/mL): 7%
- % from freshly prepared samples ([6]; 150 ng/mL): -3%
- % from freshly processed samples (n=2) ([6]; 500 ng/mL): -4%
- % from freshly processed samples (n=2) ([6]; 1000 ng/mL): -10%
- % from freshly prepared samples ([6]; 1500 ng/mL): -7%
- % from freshly processed samples (n=2) ([6]; 2000 ng/mL): -1%
- effect in combination with clofazimine or bedaquiline [7]: synergistic effect
- effect in combination with isoniazide, moxifloxacin, rifampicin [7]: additive effect
